These molecules were tested against T1, human somatostatin receptor subtype 2 (Homo sapiens, UniProt P30874) (assay: cAMP assay (inhibition of cAMP activities via sst2 receptor)). Conditions: CHO cells expressing the human somatostatin receptor subtype 2, forskolin.
T1 construct: expressed in transfected cells; host or cells: CHO (Chinese hamster ovary) cells, cultured under G-418 selection
T1 sequence (P30874 whole entry): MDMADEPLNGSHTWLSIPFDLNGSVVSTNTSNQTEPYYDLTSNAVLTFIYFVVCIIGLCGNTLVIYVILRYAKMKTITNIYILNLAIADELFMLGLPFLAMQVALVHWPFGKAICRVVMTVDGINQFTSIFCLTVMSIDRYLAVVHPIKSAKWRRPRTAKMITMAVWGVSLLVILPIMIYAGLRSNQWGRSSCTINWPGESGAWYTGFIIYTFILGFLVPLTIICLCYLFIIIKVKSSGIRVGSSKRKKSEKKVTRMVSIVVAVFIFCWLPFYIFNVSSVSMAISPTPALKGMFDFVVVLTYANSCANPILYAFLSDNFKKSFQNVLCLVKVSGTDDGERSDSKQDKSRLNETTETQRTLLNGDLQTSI
Type: cell-based
From the text: General overview: All five SSTR subtypes are Gi coupled G-protein coupled receptors (GPCRs) that lead to decreases in intracellular cyclic AMP (cAMP) when activated by an agonist. Therefore, measurement of intracellular cAMP levels can be used to assess whether compounds of the invention are agonists of SSTR subtypes (John Kelly, Troy Stevens, W. Joseph Thompson, and Roland Seifert, Current Protocols in Pharmacology, 2005,2.2.1-2.2). One example of an intracellular cAMP assay is described below.
One day prior to the assay, 40,000 Chinese hamster ovary (CHO) cells expressing the human somatostatin receptor subtype 2 are plated in each well of a 96-well tissue culture plate in DM-MEM growth media (Gibco) with the following additives: 10% fetal bovine serum (Gibco), 100 U/mL penicillin (Gibco), 100 ug/mL streptomycin (Gibco), 10 mM HEPES (Gibco), 1.2 mM sodium hydroxide, 0.5 mg/mL G-418 (Gibco)). The cells are cultured overnight at 37° C., 5% CO2 and 95% humidity. On the day of the assay, the media is aspirated and the cells are washed with 1X Dulbecco's phosphate buffered saline (Gibco). Next, 5 μL of assay buffer (1× Earle's Balanced Salt Solution (Gibco), 5 mM MgCl2, 10 mM HEPES, 0.1% bovine serum albumin, 0.2 mM 3-Isobutyl-1-methylxanthine (IBMX, Biomol Research Labs)) and forskolin is added. Various dilutions of the compounds of the invention are prepared in assay buffer and 5 μL of the dilutions are added to the cultured cells and incubated for 15 minutes at 37° C. (the final concentration of the compounds of the invention are typically 0-10,000 nM). 10 μL of lysis buffer (HRTF cAMP kit, Cisbio) containing cAMP detection and visualization antibodies are added and the assay is allowed incubate for 1-24 hours at room temperature. The intracellular cAMP concentrations are then measured using a commercially available detection kit (for example, the cAMP HTRF kit, Cisbio). The measured intracellular cAMP concentrations are plotted vs. the concentration of the compounds of the invention and the EC50 of the compounds are calculated using standard methods.
Work on `CC#Cc1cnc2ccc(-c3cc(F)cc(C#N)c3)nc2c1C(=O)N(C)C[C@@H]1CCCN1` [Compound 3-7, 6-(3-cyano-5-fluorophenyl)-N-methyl-3-(prop-1-yn-1-yl)-N-[(2S)-pyrrolidin-2-ylmethyl]-1,5-naphthyridine-4-carboxamide] yielded an EC50 of 100 to 1000 nM. With `CN(C[C@@H]1CCCN1)C(=O)c1c(N2CCC(F)(F)C2)cnc2ccc(-c3cc(F)cc(C#N)c3)nc12` [Compound 3-76, 6-(3-cyano-5-fluorophenyl)-3-(3,3-difluoropyrrolidin-1-yl)-N-methyl-N-[(2S)-pyrrolidin-2-ylmethyl]-1,5-naphthyridine-4-carboxamide] the EC50 was 100 to 1000 nM. `CC[C@H](N)CN(C)C(=O)c1c(-c2cc(C)cc(Cl)c2)cnc2ccc(-c3cc(O)cc(C(N)=O)c3)cc12` [Compound 1-8, N-[(25)-2-aminobutyl]-6-(3-carbamoyl-5-hydroxyphenyl)-3-(3-chloro-5-methylphenyl)-N-methylquinoline-4-carboxamide] gave an EC50 of 100 to 1000 nM. `CN(C[C@@H]1CCCN1)C(=O)c1c(N2CCCCC2)cnc2ccc(-c3cccc(O)c3)nc12` [Compound 3-11, 6-(3-hydroxyphenyl)-N-methyl-3-(piperidin-1-yl)-N-[(2S)-pyrroldin-2-ylmethyl]-1,5-naphthyridine-4-carboxamide] showed an EC50 of 100 to 1000 nM. Work on `CN(C[C@@H]1CCCN1)C(=O)c1c(-c2cccc(O)c2)cnc2ccc(-c3cccc(O)c3)nc12` [Compound 2-2, 3,6-bis(3-hydroxyphenyl)-N-methyl-N-[(2S)-pyrrolidin-2-ylmethyl]-1,5-naphthyridine-4-carboxamide] yielded an EC50 of 100 to 1000 nM. `CC#Cc1cnc2ccc(-c3cccc(O)c3)nc2c1C(=O)N(C)C[C@@H]1CCCN1` [Compound 3-18, 6-(3-hydroxyphenyl)-N-methyl-3-(prop-1-yn-1-yl)-N-((2S) -pyrrolidin-2-ylmethyl)-1,5-naphthyridine-4-carboxamide] showed an EC50 of 100 to 1000 nM. For `CN(C[C@@H]1CCCN1)C(=O)c1c(-c2cccc(CCC(=O)O)c2)cnc2ccc(-c3cccc(O)c3)nc12` [Compound 2-22, 3-{3-[6-(3-hydroxyphenyl)-4-{methyl[(2S)-pyrrolidin-2-ylmethyl]carbamoyl}-1,5-naphthyridin-3-yl]phenyl}propanoic acid], the EC50 was 100 to 1000 nM. With `CN(C[C@@H]1CCCN1)C(=O)c1c(N2CC3CCC(C2)O3)cnc2ccc(-c3cc(F)cc(C#N)c3)nc12` [Compound 3-70, 6-(3-cyano-5-fluorophenyl)-N-methyl-3-{8-oxa-3-azabicyclo[3.2.1]octan-3-yl}-N-[(2S) -pyrrolidin-2-ylmethyl]-1,5-naphthyridine-4-carboxamide] the EC50 was 100 to 1000 nM. `Cc1cc(Cl)cc(-c2cnc3ccc(-c4cccc(O)c4)cc3c2C(=O)N(C)C[C@@H]2CCCN2)c1` [Compound 1-1, 3-(3-chloro-5-methylphenyl)-6-(3-hydroxyphenyl)-N-methyl-N-[(2S) -pyrrolidin-2-ylmethyl]quinoline-4-carboxamide] showed an EC50 of 0.12 nM. `CN(C[C@@H]1CCCN1)C(=O)c1c(N2Cc3ccc(C(F)(F)F)cc3C2)cnc2ccc(-c3cc(F)cc(C#N)c3)nc12` [Compound 3-55, 6-(3-cyano-5-fluorophenyl)-N-methyl-N-[(2S)-pyrrolidin-2-ylmethyl]-3-[5-(trifluoromethyl)-2,3-dihydro-1H-isoindol-2-yl]-1,5-naphthyridine-4-carboxamide] gave an EC50 of 100 to 1000 nM. `CN(C[C@@H]1CCCN1)C(=O)c1c(N2CC3CC3C2)cnc2ccc(-c3cc(F)cc(C#N)c3)nc12` (stereo partly drawn) [Compound 3-69, 3-{3-azabicyclo[3.1.0]hexan-3-yl}-6-(3-cyano-5-fluorophenyl)-N-methyl-N-[(2S) -pyrrolidin-2-ylmethyl]-1,5-naphthyridine-4-carboxamide] gave an EC50 of 100 to 1000 nM. With `Cc1cc(F)cc(-c2cnc3ccc(N4CCCC4)nc3c2C(=O)N(C)C[C@@H]2CCCN2)c1` [Compound 3-2, 3-(3-fluoro-5-methylphenyl)-N-methyl-6-(pyrrolidin-1-yl)-N-[(2S)-pyrrolidin-2-ylmethyl]-1,5-naphthyridine-4-carboxamide] the EC50 was 100 to 1000 nM.
